According to US11364208B2, “Topical compositions” (DSM IP ASSETS B.V., priority 2017, dated 2022):

Experiments:
Aspergillus brasiliensis = test: Antimicrobial efficacy in analogy to challenge test NF EN ISO11930, Aspergillus brasiliensis; assay type: cell-based; conditions: 24 h, 22° C.; for Aspergillus brasiliensis colony count: initial count 10000 cfu/ml
Method: (§1) The wells were contaminated with Malassezia furfur, Propionibacterium acnes, respectively Aspergillus brasiliensis to obtain the initial contamination as outlined in table 1, 2 and 3. […] The counting of the (remaining) population was carried out 24 h after contamination.
(The term “Log reduction” is a well-known mathematical term used to show the relative number of cells, germs, microbes, etc., reduced in or on something, e.g. a 2 log reduction means the number of microbes is 100 times smaller and a 3 log reduction means the number of microbes is 1000 times smaller).

Malassezia furfur = test: Antimicrobial efficacy in analogy to challenge test NF EN ISO11930, Malassezia furfur; assay type: cell-based; conditions: for Δ (change of microorganism count t = 0 h to t = 24): 24 h, 0.5 wt.-% of each active; for Δ (change of microorganism count t = 0 h to t = 24) / Malassezia furfur colony count: 22° C., initial count 3300 cfu/ml; for Malassezia furfur colony count: 24 h after contamination, physiological serum 0.85 wt.-% NaCl, 0.5 wt.-% of each active (0.5 wt.-% Erythrulose corresponds to 0.4 wt.-% of active)
Method: as §1

[1] = 0.5 wt.-% Erythrulose (corresponds to 0.4 wt.-% of active)
[2] = 0.4 wt.-% p-Hydroxyacetophenone

Structure (SMILES) | Log step reduction (Aspergillus brasiliensis; [1]) | Aspergillus brasiliensis colony count (Aspergillus brasiliensis; [1]) [cfu/ml] | Δ (change of microorganism count t = 0 h to t = 24) (Malassezia furfur) | Malassezia furfur colony count (Malassezia furfur) [cfu/ml] | anti-fungal effect against Malassezia furfur (in words) (Malassezia furfur; concentration of 0.5%) | Log step reduction (Aspergillus brasiliensis; [2]) | Aspergillus brasiliensis colony count (Aspergillus brasiliensis; [2]) [cfu/ml]
O=C(CO)[C@@H](O)CO [Erythrulose, L-(+)-Erythrulose] | 2 | 100 | ±0% | 3300 | does not exert any anti-fungal effect |  | 
CC(=O)c1ccc(O)cc1 [p-Hydroxyacetophenone, 1-(4-hydroxyphenyl)-ethanone] |  |  | −83% | 550 |  | 2 | 100
